Reference: patent US8278309B2, “Synthetic mimetics of host defense and uses thereof” (priority 2008, dated 2012)
Counter-ions that a name gives are not always drawn. Like-named read-outs stand apart in the source and are kept apart here.

Tests used:
Strept. viridians = experiment: MIC broth microdilution, Gram-positive clinical isolates; type: cell-based; conditions: Strept. viridians; 2-3 isolates/organism; read-out: MIC
Description: (§1) Compound A was evaluated in vitro in accordance with defined CLSI documents specific to the organisms (aerobic, anaerobic or yeast) tested in this study. Ampicillin, ceftazidime, cefuroxime, ciprofloxacin, linezolid, and vancomycin were tested alongside as comparator agents for aerobic bacteria; clindamycin and metronidazole were tested as comparators for anaerobes; fluconazole was tested as a comparator for yeast isolates. Stock solutions of Compound A were prepared in dimethyl sulfoxide (DMSO). Ampicillin, ceftazidime, cefuroxime, ciprofloxacin, linezolid, vancomycin, metronidazole, clindamycin, and fluconazole were prepared each according to its manufacturer's guideline.
(§2) Minimum inhibitory concentrations (MICs) in μg/ml were determined according to CLSI guideline M7-A7 by broth microdilution. All aerobes were tested using Mueller-Hinton broth medium with the exception of Streptococcus spp., which were tested using cation-adjusted Mueller-Hinton broth supplemented with 2-5% lysed horse blood.

Staph. spp. (coagulase−) = experiment: as above; type: cell-based; conditions: Staph. spp. (coagulase−); 2-3 isolates/organism; read-out: MIC
Description: as §1, §2

Entero. faecium (VRE) = experiment: as above; type: cell-based; conditions: Enterococcus faecium; Entero. faecium (VRE); 2-3 isolates/organism; read-out: MIC
Description: as §1, §2

Entero. faecalis = experiment: as above; type: cell-based; conditions: Enterococcus faecalis; Entero. faecalis; 2-3 isolates/organism; read-out: MIC
Description: as §1, §2

Strept. pneumoniae = experiment: as above; type: cell-based; conditions: Streptococcus pneumoniae; Strept. pneumoniae; 2-3 isolates/organism; read-out: MIC
Description: as §1, §2

Staph. spidermidis = experiment: as above; type: cell-based; conditions: Staph. spidermidis; 2-3 isolates/organism; read-out: MIC
Description: as §1, §2

Strept. pyogenes = experiment: as above; type: cell-based; conditions: Streptococcus pyogenes; Strept. pyogenes; 2-3 isolates/organism; read-out: MIC
Description: as §1, §2

Staph. saprophyticus = experiment: as above; type: cell-based; conditions: Staphylococcus saprophyticus; Staph. saprophyticus; 2-3 isolates/organism; read-out: MIC
Description: as §1, §2

Staph. aureus (MRSA) = experiment: as above; type: cell-based; conditions: Staphylococcus aureus; Staph. aureus (MRSA); 2-3 isolates/organism; read-out: MIC
Description: as §1, §2

Strept. agalactiae = experiment: as above; type: cell-based; conditions: Streptococcus agalactiae; Strept. agalactiae; 2-3 isolates/organism; read-out: MIC
Description: as §1, §2

[1] = Hemolysis assay using human erythrocytes; type: cell-based; conditions: human, pH 7.4
Description: (§3) Pooled whole human blood was centrifuged to separate the red blood cells (RBC). The isolated RBCs were rinsed and diluted in Tris-buffered saline (TBS buffer, pH 7.4) to obtain a 0.22% RBC stock suspension. 5 μL of Compound A stock solution was added to 45 μL of RBC suspension and incubated with shaking for 1 hour at 37° C. At the conclusion of the incubation time, samples were centrifuged and 30 μL of the supernatant was added to 100 μL of water. OD414 measurements were read for hemoglobin concentration. […] EC50 values were determined as described above.

[2] = test system: human erythrocytes (RBCs); experiment: Hemolysis assay using human erythrocytes; type: cell-based; conditions: vs S. aureus MIC
Description: as §3

S. aureus (ATCC 13507) = experiment: Rat thigh burden model; type: in vivo; conditions: for reduction of bacterial load in comparison to inoculated controls / reduction relative to inoculum levels at 1 hour post-infection: 10 mg/kg/dose, 20 mg/kg total dose
Description: For each experiment, female 8-9-week old femoral vein cannulated Crl:CD(SD) rats were made neutropenic with cyclophosphamide (150 mg/kg, i.p.) on days 4 and 1 before i.m. inoculation with S. aureus (ATCC 13507). A suspension of S. aureus was prepared from colonies obtained from an overnight culture, placed in PBS, and adjusted to approximately 10^7 cfu/mL with the aid of a spectrophotometer. Each rat was injected 0.2 mL of inoculum into the thigh muscle of the right hind leg. Thighs were harvested at 25 hours after inoculation and processed to determine cfu/thigh. Compound A was given by i.v. bolus injection into a tail vein or 1-hour i.v. infusion, or 4-hour i.v. infusion via the femoral vein cannulae at different time intervals following inoculation. Separate inoculation control groups were included in each experiment, and vancomycin groups were included as comparative agents in the first and second experiments. Each group, including the controls and comparative agent, consisted of 4 rats.

[3] = Saturation solubility in excipients; type: physicochemical; conditions: for solubility: thermodynamic from solid
[4] = test system: S. aureus and coagulase-negative staphylococci; experiment: MICs with Staphylococcus species with defined resistance phenotypes; type: cell-based; conditions: for MIC range: in µg/mL
Description: Evaluation of the susceptibility profiles of Compound A against selected isolates was carried out in vitro by broth microdilution methodology using Mueller-Hinton broth medium according to CLSI document M7-A7. CLSI interpretive breakpoints were applied where applicable as directed by CLSI document M100-S17.

Question: For `N=C(N)NCCCCC(=O)Nc1cc(C(F)(F)F)cc(NC(=O)c2cc(C(=O)Nc3cc(C(F)(F)F)cc(NC(=O)CCCCNC(=N)N)c3O[C@H]3CCNC3)ncn2)c1O[C@H]1CCNC1` [Compound A, pyrimidine-4,6-dicarboxylic acid bis-{[3-(5-guanidino-pentanoylamino)-2-((R)-pyrrolidin-3-yloxy)-5-trifluoromethyl-phenyl]-amide}tetrahydrochloride], which MIC (Strept. viridians) is on record?
Answer: 2 to 8 µg/mL

Question: And the MIC (Staph. spp. (coagulase−))?
Answer: 0.25 to 0.5 µg/mL

Question: And the MIC (Entero. faecium (VRE))?
Answer: 1 µg/mL

Question: And the MIC (Entero. faecalis)?
Answer: 1 µg/mL

Question: And the MIC (Strept. pneumoniae)?
Answer: 4 to 8 µg/mL

Question: What about the MIC (Staph. spidermidis) of the same compound?
Answer: 0.25 to 0.5 µg/mL

Question: What about the MIC (Strept. pyogenes) of the same compound?
Answer: 1 to 4 µg/mL

Question: And the MIC (Staph. saprophyticus)?
Answer: 0.25 to 0.5 µg/mL

Question: And the MIC (Staph. aureus (MRSA))?
Answer: 0.5 to 1 µg/mL

Question: What about the MIC (Strept. agalactiae) of the same compound?
Answer: 2 µg/mL

Question: What about the EC50 at 1 h [1] of the same compound?
Answer: > 500 µg/mL

Question: And the “Selectivity (EC50/MIC) RBCs” value [2]?
Answer: >500

Question: What about the “reduction of bacterial load in comparison to inoculated controls” value (S. aureus (ATCC 13507); 1 hour i.v. infusions) of the same compound?
Answer: 3.0 logs

Question: What about the “reduction relative to inoculum levels at 1 hour post-infection” value (S. aureus (ATCC 13507); 1 hour i.v. infusions) of the same compound?
Answer: ~2.0 logs

Question: What about the “reduction of bacterial load in comparison to inoculated controls” value (S. aureus (ATCC 13507); i.v. bolus) of the same compound?
Answer: 3.2 logs

Question: And the “reduction relative to inoculum levels at 1 hour post-infection” value (S. aureus (ATCC 13507); i.v. bolus)?
Answer: approximately 2.2 logs

Question: What about the “efficacy relative to vancomycin” value (S. aureus (ATCC 13507); rat thigh burden) of the same compound?
Answer: comparable to vancomycin

Question: What about the “behaviour of formulation at saturation” value ([3]; 0.9% and 1.2% sodium chloride solution) of the same compound?
Answer: formed a viscous yellow gel

Question: What about the solubility ([3]; 15% w/v glycerin in purified water, 25 °C, aqueous with cosolvent or surfactant or cyclodextrin, 15% w/v glycerin in purified water, read-out: saturation solubility at 25° C. (free base)) of the same compound?
Answer: 63.5 mg/mL

Question: And the solubility ([3]; 15% w/v propylene glycol in purified water, 25 °C, aqueous with cosolvent or surfactant or cyclodextrin, 15% w/v propylene glycol in purified water, read-out: saturation solubility at 25° C. (free base))?
Answer: 64.9 mg/mL

Question: What about the solubility ([3]; 20% w/v Kleptose in purified water, 25 °C, aqueous with cosolvent or surfactant or cyclodextrin, 20% w/v Kleptose in purified water, read-out: saturation solubility at 25° C. (free base)) of the same compound?
Answer: 79.7 mg/mL

Question: And the “behaviour of formulation at saturation” value ([3]; 20-50% w/v propylene glycol in saline)?
Answer: formation of a viscous yellow gel

Question: What about the solubility ([3]; 25% w/v Captisol in purified water, 25 °C, aqueous with cosolvent or surfactant or cyclodextrin, 25% w/v Captisol in purified water, read-out: saturation solubility at 25° C. (free base)) of the same compound?
Answer: 64.3 mg/mL

Question: And the solubility ([3]; 30% w/v glycerin in purified water, 25 °C, aqueous with cosolvent or surfactant or cyclodextrin, 30% w/v glycerin in purified water, read-out: saturation solubility at 25° C. (free base))?
Answer: 63.1 mg/mL

Question: What about the solubility ([3]; 30% w/v propylene glycol and 5 w/v ethanol in purified water, 25 °C, aqueous with cosolvent or surfactant or cyclodextrin, 30% w/v propylene glycol and 5 w/v ethanol in purified water, read-out: saturation solubility at 25° C. (free base)) of the same compound?
Answer: 43.9 mg/mL

Question: And the solubility ([3]; 30% w/v propylene glycol in purified water, 25 °C, aqueous with cosolvent or surfactant or cyclodextrin, 30% w/v propylene glycol in purified water, gelled during centrifugation but liquefied on standing, read-out: saturation solubility at 25° C. (free base))?
Answer: 59.1 mg/mL

Question: And the solubility ([3]; 40% w/v Kleptose in purified water, 25 °C, aqueous with cosolvent or surfactant or cyclodextrin, 40% w/v Kleptose in purified water, read-out: saturation solubility at 25° C. (free base))?
Answer: 102 mg/mL

Question: What about the solubility ([3]; 50% w/v glycerin in purified water, 25 °C, aqueous with cosolvent or surfactant or cyclodextrin, 50% w/v glycerin in purified water, read-out: saturation solubility at 25° C. (free base)) of the same compound?
Answer: 56.8 mg/mL

Question: What about the solubility ([3]; 50% w/v propylene glycol in purified water, 25 °C, aqueous with cosolvent or surfactant or cyclodextrin, 50% w/v propylene glycol in purified water, read-out: saturation solubility at 25° C. (free base)) of the same compound?
Answer: 74.7 mg/mL

Question: What about the “saturation solubility at 25° C. (free base)” value ([3]; Citric Acid/Sodium Citrate (pH 5)) of the same compound?
Answer: 11.2 mg/mL

Question: What about the solubility ([3]; DMA, 25 °C, organic solvent or mixture, DMA, read-out: saturation solubility at 25° C. (free base)) of the same compound?
Answer: 0.6 mg/mL

Question: What about the solubility ([3]; PEG 400, 25 °C, organic solvent or mixture, PEG 400, read-out: saturation solubility at 25° C. (free base)) of the same compound?
Answer: 18.5 mg/mL

Question: What about the solubility ([3]; Tris(hydroxymethyl)aminomethane buffer, 25 °C, pH 7.4, aqueous buffer, pH 7.4, read-out: solubility) of the same compound?
Answer: 61.4 mg/mL

Question: What about the solubility ([3]; benzyl alcohol, 25 °C, organic solvent or mixture, Benzyl alcohol, read-out: saturation solubility at 25° C. (free base)) of the same compound?
Answer: 1.83 mg/mL

Question: What about the solubility ([3]; citric acid/sodium citrate buffer, 25 °C, pH 3, aqueous buffer, Citric Acid/Sodium Citrate (pH 3), read-out: saturation solubility at 25° C. (free base)) of the same compound?
Answer: 65.5 mg/mL

Question: And the solubility ([3]; citric acid/sodium citrate buffer, 25 °C, pH 5, aqueous buffer, Citric Acid/Sodium Citrate (pH 5), read-out: saturation solubility at 25° C. (free base))?
Answer: 12.1 mg/mL

Question: And the solubility ([3]; ethanol, 25 °C, organic solvent or mixture, Ethanol, read-out: saturation solubility at 25° C. (free base))?
Answer: 1.13 mg/mL

Question: And the solubility ([3]; glycerin, 25 °C, organic solvent or mixture, Glycerin, read-out: saturation solubility at 25° C. (free base))?
Answer: 53 mg/mL

Question: What about the solubility ([3]; propylene glycol, 25 °C, organic solvent or mixture, Propylene Glycol, read-out: saturation solubility at 25° C. (free base)) of the same compound?
Answer: 90 mg/mL

Question: What about the solubility ([3]; purified water, 25 °C, water, Purified Water, read-out: saturation solubility at 25° C. (free base)) of the same compound?
Answer: 65 mg/mL

Question: And the solubility ([3]; tris(hydroxymethyl)aminomethane HCl buffer, 25 °C, pH 7, aqueous buffer, Tris(hydroxymethyl)amino methane HCl (pH 7.0), read-out: saturation solubility at 25° C. (free base))?
Answer: 61.4 mg/mL

Question: And the MIC range ([4]; DAP-NS OXA-R, 5 isolates)?
Answer: 0.5-2

Question: What about the MIC range ([4]; Drug-suscept., 59 isolates) of the same compound?
Answer: 0.25-1

Question: And the MIC range ([4]; LZD-NS OXA-R, 5 isolates)?
Answer: 0.5-1

Question: What about the MIC range ([4]; OXA-R, 69 isolates) of the same compound?
Answer: 0.25-2

Question: And the MIC90 ([4]; Staphylococcus aureus, screen of 150 Staphylococci organisms)?
Answer: 0.5 to 2 µg/mL

Question: What about the MIC range ([4]; VRSA/VISA DAP-NS OXA-R, 3 isolates) of the same compound?
Answer: 0.5-1

Question: What about the MIC range ([4]; VRSA/VISA OXA-R, 7 isolates) of the same compound?
Answer: 0.5-1
